Patent US20250011725A1, “TISSUE-[…] CERAMIC TEMPLATE AND USES THEREOF” (Osteogene Bio Inc., priority 2023, published 2025)

Columns and labels:
Type in all cases: cell-based
[1] = tested on: co-cultured osteoblast precursor MC3T3 and osteosarcoma cells; experiment: survival index of co-cultured cells after doxorubicin, 3D static culture using a PCT; settings: 3D static culture on PCT, 0.5 mg/ml doxorubicin
Source text: (§1) FIG. 37 depicts comparison of survival index of co-cultured cells onto a culture plate for 2D static culture without a porous ceramic template (PCT), 3D static culture using a PCT, and 3D dynamic culture using a PCT after treated with doxorubicin (DOX: therapeutic drug) for designated time. In this example, osteoblast precursor MC3T3 with 2.5×10^5 cell population and osteosarcoma with 1×10^5 cell population are deployed onto a 12 well culture plate for the 2D static culture. 2.5×10^5 MC3T3 cell and 1×10^5 osteosarcoma are also seeded onto a PCT that is placed in a 12 well culture plate for the 3D static culture. For the 3D dynamic culture, 2.5×10^5 MC3T3 cell and 1×10^5 osteosarcoma were seeded onto a PCT and held for two days under static culture condition, then relocated into a culture column and subjected to dynamic culture with doxorubicin (therapeutic agent) using a peristaltic perfusion pump. […] In this regard, the 3D dynamic culture system is considered an effective alternative method of mimicking in vivo cancer model for performing a therapeutic agent test and/or screening.

[2] = tested on: co-cultured osteoblast precursor MC3T3 and osteosarcoma cells; experiment: survival index of co-cultured cells after doxorubicin, 2D static culture on culture plate without PCT; settings: 0.5 mg/ml doxorubicin
Source text: as §1

[3] = tested on: co-cultured osteoblast precursor MC3T3 and osteosarcoma cells; experiment: survival index of co-cultured cells after doxorubicin, 3D dynamic culture using a PCT (perfusion bioreactor)
Source text: FIG. 33 depicts a bioreactor system suitable for performing a therapeutic agent treatment test according to embodiments of the present disclosure. Reference numeral 902 represents a co-cultured 3D cancer model platform 902 including a PCT 101 (such as the one resulting from the co-culturing discussed above in connection with FIGS. 32A and 32B). The 3D cancer model platform 902 is inserted into a culture column 903 for dynamic therapeutic agent treatment. The culture column 903 is connected with a medium vessel 904 that is filled with a medium in which a therapeutic agent 901 is dissolved. Afterwards, a dynamic therapeutic agent treatment is employed for up to, but not limited to, about seven days. In an exemplary embodiment, the therapeutic agent 901 includes Doxorubicin with a concentration of about 0.5 mg/ml. However, the present disclosure is suitable for cancer treatment with various therapeutic agents including but not limited to Cisplatin, Methotrexate, Ifosfamide, Actinomycin D, Bleomycin, Vincristine, Cyclophosphamide, Paclitaxel, Carboplatin, or a combination of two more of the foregoing agents. In an exemplary embodiment, a flow rate of the therapeutic agent 901 medium into the culture column 903 is about 5 ml/min for about five minutes per day. […]

## COc1cccc2c1C(=O)c1c(O)c3c(c(O)c1C2=O)C[C@@](O)(C(=O)CO)C[C@@H]3O[C@H]1C[C@H](N)[C@H](O)[C@H](C)O1 [doxorubicin]
[1]
  survival index compared to control: significant reduction
[2]
  survival index compared to control: significant reduction
[3]; 3D dynamic culture on PCT, 0.5 mg/ml doxorubicin, 5 ml/min flow rate for five minutes per day, three days
  reduction of survival index compared to control: not significant
[3]; after doxorubicin treatment
  cell survival index, 3D dynamic culture in comparison with 3D static culture: significantly higher
